In patent US20070128217A1 (priority 2003, published 2007):

How the values were obtained:
[1] = system: antibodies in sera from SARS patients (sera 1a, 1b, 2, 6, 37, 62, London, SARS-yellow, SARS-green); format: binding, human; design: Binding of serum 6 to linear peptides of protein X1 of SARS-CoV Urbani / Binding of serum 37 to linear peptides of protein X1 of SARS-CoV Urbani / Binding of serum 6 to looped/cyclic peptide (PEPSCAN-ELISA) / Binding of serum 37 to looped/cyclic peptide (PEPSCAN-ELISA) / Binding of serum 37 to looped/cyclic peptides of protein X1 of SARS-CoV Urbani / Binding of serum 6 to linear peptides of protein X2 / Binding of serum 37 to linear peptides of protein X2 / Binding of serum 37 to looped/cyclic peptides of protein X2 of SARS-CoV Urbani / Binding of serum 6 to linear peptides of protein M of SARS-CoV Urbani / Binding of serum 37 to linear peptides of protein M of SARS-CoV Urbani / Binding of serum 6 to looped/cyclic peptides of protein M of SARS-CoV Urbani / Binding of serum 37 to looped/cyclic peptides of protein M of SARS-CoV Urbani / Binding of serum 6 to linear peptides of protein X3 of SARS-CoV Urbani / Binding of serum 37 to linear peptides of protein X3 of SARS-CoV Urbani / Binding of serum 37 to looped/cyclic peptides of protein X3 of SARS-CoV Urbani / Binding of serum 6 to linear peptides of protein X4 of SARS-CoV Urbani / Binding of serum 37 to linear peptides of protein X4 of SARS-CoV Urbani / Binding of serum 37 to looped/cyclic peptides of protein X4 of SARS-CoV Urbani / Binding of serum 6 to linear peptides of protein X5 of SARS-CoV Urbani / Binding of serum 37 to linear peptides of protein X5 of SARS-CoV Urbani / Binding of serum 37 to looped/cyclic peptides of protein X5 of SARS-CoV Urbani / Binding of serum 6 to linear peptides of protein N of SARS-CoV Urbani / Binding of serum 37 to linear peptides of protein N of SARS-CoV Urbani / Binding of serum 6 to linear peptide (PEPSCAN-ELISA) / Binding of serum 1a to looped/cyclic peptides of protein N of SARS-CoV Urbani / Binding of serum 1b to looped/cyclic peptides of protein N of SARS-CoV Urbani / Binding of serum 2 to looped/cyclic peptides of protein N of SARS-CoV Urbani / Binding of serum 6 to looped/cyclic peptides of protein N of SARS-CoV Urbani / Binding of serum 37 to looped/cyclic peptides of protein N of SARS-CoV Urbani / Binding of serum 62 to looped/cyclic peptides of protein N of SARS-CoV Urbani / Binding of serum London to looped/cyclic peptides of protein N of SARS-CoV Urbani / Binding of serum SARS-green to looped/cyclic peptides of protein N of SARS-CoV Urbani: unit not given here
[2] = system: control sera (pooled serum of ten healthy LUMC hospital workers; commercial negative donor pooled serum from the Dutch bloodbank); format: binding, human; design: Binding of Control serum LUMC to linear peptides / Binding of Control serum Blood-bank to linear peptides / Binding of Control serum LUMC to looped peptides / Binding of Control Serum Blood-Bank to Looped peptides / Binding of Control serum LUMC to linear peptides of the protein M of SARS-CoV Urbani / Binding of Control serum Blood-bank to linear peptides of the protein M of SARS-CoV Urbani / Binding of Control serum LUMC to looped peptides of the protein M of SARS-CoV Urbani / Binding of Control Serum Blood-Bank to Looped peptides of the protein M of SARS-CoV Urbani: unit not given here
[3] = system: rabbit serum obtained by immunizing a rabbit with the SARS-CoV strain Frankfurt 1; format: binding; design: Binding of a rabbit serum to linear peptides / Binding of a rabbit serum to looped peptides / Rabbit serum linear peptides / Rabbit serum looped peptides / Binding of a rabbit serum to linear peptides of protein N of SARS-CoV Urbani (Rabbit serum linear peptides) / Binding of a rabbit serum to looped/cyclic peptides of protein N of SARS-CoV Urbani (Rabbit serum looped peptides): unit not given here
[4] = system: recombinant human anti-SARS-CoV antibody 03-018; format: binding; design: Binding of antibody 03-018 to linear peptides of the N protein of SARS-CoV Urbani / Binding of antibody 03-018 to looped/cyclic peptides of the N protein of SARS-CoV Urbani: unit not given here

Sequence | Binding of serum 1a to linear peptides of protein N of SARS-CoV Urbani [1] | Binding of serum 1a to looped/cyclic peptides of protein N of SARS-CoV Urbani [1] | Binding of serum 1b to linear peptides of protein N of SARS-CoV Urbani [1] | Binding of serum 1b to looped/cyclic peptides of protein N of SARS-CoV Urbani [1] | Binding of serum 2 to linear peptides of protein N of SARS-CoV Urbani [1] | Binding of serum 2 to looped/cyclic peptides of protein N of SARS-CoV Urbani [1] | Binding of serum 6 to linear peptides of protein N of SARS-CoV Urbani [1] | Binding of serum 6 to looped/cyclic peptides of protein N of SARS-CoV Urbani [1] | Binding of serum 37 to linear peptides of protein N of SARS-CoV Urbani [1] | Binding of serum 37 to looped/cyclic peptides of protein N of SARS-CoV Urbani [1] | Binding of serum 62 to linear peptides of protein N of SARS-CoV Urbani [1] | Binding of serum 62 to looped/cyclic peptides of protein N of SARS-CoV Urbani [1] | Binding of serum London to linear peptides of protein N of SARS-CoV Urbani [1] | Binding of serum London to looped/cyclic peptides of protein N of SARS-CoV Urbani [1] | Binding of serum SARS-green to linear peptides of protein N of SARS-CoV Urbani [1] | Binding of serum SARS-green to looped/cyclic peptides of protein N of SARS-CoV Urbani [1] | Binding of serum SARS-yellow to linear peptides of protein N of SARS-CoV Urbani [1] | Binding of serum SARS-yellow to looped/cyclic peptides of protein N of SARS-CoV Urbani [1] | Binding of a rabbit serum to linear peptides of protein N of SARS-CoV Urbani (Rabbit serum linear peptides) [3] | Binding of a rabbit serum to looped/cyclic peptides of protein N of SARS-CoV Urbani (Rabbit serum looped peptides) [3] | other results
KTDEAQPLPQRQKKQ | 0.3 | 0.3 | 0.2 | 0.1 | 0.3 | 0.3 | 0.3 | 0.6 | 0.9 | 0.3 | 0.9 | 0.1 | 1.4 | 0.7 | 0.6 | 0.2 | 1.5 | 0.5 | 0.0 | 0.0 | Control Serum Blood-Bank Looped peptides [2]: 0.4; Control serum Blood-bank linear peptides [2]: 0.7; Control serum LUMC linear peptides [2]: 0.9; Control serum LUMC looped peptides [2]: 0.4; Binding of antibody 03-018 to linear peptides of the N protein of SARS-CoV Urbani [4]: 0.1; Binding of antibody 03-018 to looped/cyclic peptides of the N protein of SARS-CoV Urbani [4]: 0.2
DNNQNGGRNGARPKQ | 0.2 | 0.4 | 0.1 | 0.2 | 0.3 | 0.4 | 0.1 | 0.3 | 0.6 | 0.6 | 0.7 | 0.4 | 0.5 | 0.4 | 0.6 | 0.4 | 0.6 | 0.4 | 0.1 | 0.4 | Binding of Control Serum Blood-Bank to Looped peptides [2]: 0.7; Binding of Control serum Blood-bank to linear peptides [2]: 0.8; Binding of Control serum LUMC to linear peptides [2]: 0.6; Binding of Control serum LUMC to looped peptides [2]: 0.6; Binding of antibody 03-018 to linear peptides of the N protein of SARS-CoV Urbani [4]: 0.2; Binding of antibody 03-018 to looped/cyclic peptides of the N protein of SARS-CoV Urbani [4]: 0.3
